Values joined by “and” are separate entries in the source; they are usually repeats but may differ in a detail not shown here. Identical values can stand only once. Counter-ions that a name gives are not always drawn. Square brackets hold non-standard residues; d marks the D form. Peptide text beside a SMILES is read from it. * marks the point of attachment. dPhg = N[C@@H](C(=O)O)c1ccccc1; Boc = CC(C)(C)OC(=O)*
Legend:
[1] = target: T1, bovine thrombin (Bos taurus, UniProt P00735); assay: Inhibition of thrombin amidase activity (chromogenic substrate), bovine thrombin; assay type: biochemical; conditions: apparent equilibrium constant inhibitor-thrombin, mean over a range of concentrations
T1 construct: 25 μl of bovine thrombin solution (0.21 mg/ml of thrombostat powder); purchased thrombostat powder
Method: The data in the table were obtained in an assay in which thrombin hydrolyzes the chromogenic substrate, N-benzoyl-D-phenylalanyl-L-valyl-L-arginyl-p-nitroanilide.
The assay was carried out in 50 μl buffer (0.03M Tris, 0.15M NaCl, pH 7.4) with 25 μl of bovine thrombin solution (0.21 mg/ml of thrombostat powder in 0.06M Tris, 0.3M NaCl, pH 7.4) and 150 μl of an aqueous solution of the chromogenic substrate at a concentration of 0.25 mg/ml. Solutions of test compound (25 μl) at various concentrations were added. […] Standard curves were constructed by plotting free thrombin concentration against hydrolysis rate. […] The amount of free inhibitor in each assay was calculated by subtracting the number of moles of bound thrombin from the number of moles of added inhibitor (test compound).
(§1) Kass was calculated for a range of concentrations of compounds and the mean value is reported in units of liter per mole.

[2] = system: plasma coagulation (thromboplastin); assay: Plasma coagulation assay: prothrombin time; assay type: biochemical
Method: The numerical values in the table are the concentrations of the test compounds (ng/ml) required to prolong coagulation by 2-fold in the three tests. The thrombin time evaluation was carried out in plasma and separately determined in a buffer system at pH 7.5.
(§2) The data presented in Table 2 were obtained using a CoaScreener instrument from Tecan, Inc. in the assay protocols listed below.
50 μl thromboplastin (Dade)

[3] = system: plasma coagulation (Actin, CaCl2); assay: Plasma coagulation assay: APTT (activated partial thromboplastin time); assay type: biochemical
Method: (§3) The anticoagulant activity of the compounds of the invention has been determined in standard tests. The following Table 2 presents the data obtained with representative compounds of the invention in tests used to determine prothrombin time, thrombin time and activated partial thromboplastin time (APTT). The numerical values in the table are the concentrations of the test compounds (ng/ml) required to prolong coagulation by 2-fold in the three tests. The thrombin time evaluation was carried out in plasma and separately determined in a buffer system at pH 7.5.
as §2

[4] = target: T1, bovine thrombin; assay: Plasma coagulation assay: thrombin time; assay type: biochemical
Method: as §3, §2
50 μl bovine thrombin (2 NIH

[5] = target: T1, bovine thrombin; assay: Thrombin time in buffer (fibrinogen instead of plasma); assay type: biochemical; conditions: Buffer (pH 7.5)
Method: as §3, §2
In the Thrombin Time determined in pH 7.4 buffer fibrinogen was used instead of plasma.

[6] = system: arterial thrombosis in the carotid artery; assay: Ferric chloride induced arterial thrombosis in the carotid artery of the rat; assay type: in vivo; conditions: infusion from 15 min before to 60 min after FeCl3, NA = Not active at 4 mg/kg/h or at 7 mg/kg/h, the highest doses tested
Method: The antithrombotic activity of representative compounds of the invention was determined in in vivo tests carried out in the rat. The test employed induced arterial thrombosis in the carotid artery of the rat and measured the infusion dose of test compound required to maintain blood flow for fifty minutes past the time of occlusion. The test was performed as follows.
Arterial thrombosis was induced in the rat by injury of the carotid artery. Topical application of a ferric chloride solution was used to injure the vessel. Male Sprague-Dawley rats (375-450 g) were anesthetized with xylazine (20 mg/kg, s.c.) followed by ketamine HCl (100 mg/kg, s.c.). Animals were laid on a water blanket in which the circulated water was maintained at 37° C. The carotid artery was approached through a midline cervical incision. Careful blunt dissection was used to expose and isolate the vessel from the carotid sheath. A silk suture was pulled underneath the artery to lift the vessel to provide clearance to insert a thermocouple underneath it. […] Small forceps were used to dip discs (3 mm dia) of Whatman No. 1 filter paper into a FeCl3 solution (35%). The discs were cut to equal size using sharpened stainless steel tubing (3 mm i.d.) chucked in a drill press. A saturated disc was placed on each carotid artery above the thermocouple. The time between FeCl3 application and the time at which temperature decreased abruptly was recorded as time to occlusion (TTO) of the vessel. The average time required for both vessels to occlude was used to represent TTO for each animal.
Test compounds were dissolved in isotonic saline. […]
The association between vessel occlusion and the abrupt temperature decrease was established by simultaneously recording the temperature and blood flow on the same recorder. […] Baseline temperature and flow velocity (determined with a Directional Pulsed Doppler Flowmeter, Model 545-C, University of Iowa Bioengineering) were recorded before application of 35% ferric chloride. […]

[7] = target: T2, human thrombin (Homo sapiens, UniProt P00734); assay: Inhibition of thrombin amidase activity (chromogenic substrate), human thrombin; assay type: biochemical; conditions: human thrombin (footnote 2)
T2 construct: purchased Inzyme Research Laboratories of South Bend, Ind
Method: The compounds provided by the invention (formula 1) inhibit the action of thrombin in man and animals. […] The following Table 1 lists the apparent equilibrium constant (Kass) for interaction between the test compound (inhibitor) and thrombin. The data in the table were obtained in an assay in which thrombin hydrolyzes the chromogenic substrate, N-benzoyl-D-phenylalanyl-L-valyl-L-arginyl-p-nitroanilide.
The assay was carried out in 50 μl buffer (0.03M Tris, 0.15M NaCl, pH 7.4) with 25 μl of bovine thrombin solution (0.21 mg/ml of thrombostat powder in 0.06M Tris, 0.3M NaCl, pH 7.4) and 150 μl of an aqueous solution of the chromogenic substrate at a concentration of 0.25 mg/ml. Solutions of test compound (25 μl) at various concentrations were added. Rates of hydrolysis of the substrate were measured by monitoring the reactions at 405 nm for the release of p-nitroaniline. […] The bound thrombin (bound to test compound) was calculated by subtracting the amount of free thrombin observed in each assay from the known initial amount of thrombin used in the assay. The amount of free inhibitor in each assay was calculated by subtracting the number of moles of bound thrombin from the number of moles of added inhibitor (test compound). […]
as §1

Molecule | Thrombin Amidase Kass × 10^6 [1] | Prothrombin Time: concentration required to prolong coagulation by 2fold [2] | APTT: concentration required to prolong coagulation by 2fold [3] | Thrombin Time: concentration required to prolong coagulation by 2fold [4] | Thrombin Time: concentration required to prolong coagulation by 2fold [5] | ED50: infusion dose required to maintain blood flow for 50 min [6] | Thrombin Amidase Kass × 10^6 ([1]; diacetate salt) | Thrombin Amidase Kass × 10^6 [7]
CC(C)(C)OC(=O)NC(C(=O)N1CCC[C@H]1C(=O)N[C@H](C=O)CCCNC(=N)N)c1cccc2ccccc12 (mixture of isomers) [Boc-DL-1-naphthylglycyl] | 18 × 10^6 1/mole | 1136 ng/mL | 2272 ng/mL | 320 ng/mL | 112 ng/mL | 5.5 mg/kg/h |  | 
CC(=O)O.CC(=O)O.CC(C)(C)OC(=O)N[C@@H](C(=O)N1CCC[C@H]1C(=O)N[C@H](C=O)CCCNC(=N)N)c1cccc2ccccc12 [Boc-D-1-naphthylglycyl, N-Boc-D-1-naphthylglycyl-Pro-Arg-H diacetate] | 52 × 10^6 1/mole | 1225 ng/mL | 3100 ng/mL | 230 ng/mL | 105 ng/mL | 6.4 mg/kg/h |  | 
CC(C)(C)OC(=O)N[C@@H](C(=O)N1CCC[C@H]1C(=O)N[C@H](C=O)CCCNC(=N)N)c1ccccc1 [Boc-D-phenylglycyl, N-(t-Butyloxycarbonyl)-D-phenylglycyl-L-Prolyl-L-Arginine aldehyde (Boc-D-Phg-Pro-Arg-H) diacetate salt] (Boc-[dPhg]-Pro-Arg-aldehyde) |  | 667 ng/mL | 1169 ng/mL | 110 ng/mL | 118 ng/mL | 2.9 mg/kg/h | 88 × 10^6 1/mole and 73 × 10^6 1/mole | 
N=C(N)NCCCC(C=O)NC(=O)C1CCCN1C(=O)C1CC2CCCCC2CN1 [D-3-(4aS, 8aS)-Piq-(L)-Pro-(L)-Arg-H] |  |  |  |  |  |  |  | 56 × 10^6 1/mole
D-3 -(4aR, 8aR)-Piq-(L)-Pro-(L)-Arg-H |  |  |  |  |  |  |  | 214 × 10^6 1/mole

Reference: US5430023A, “Tripeptide antithrombotic agents” (Eli Lilly and Company, priority 1993, dated 1995)
